Reference: publication PMC11822212, “High-throughput screening identifies Aurora kinase B as a critical therapeutic target for Merkel cell carcinoma” (Nature Communications, 2025)

Tests used:
Assay type in all cases: cell-based, human
MCC13 cells (VN-MCC) = test: qHTS cell viability (CellTiter-Glo, 72 h; primary and follow-up small molecule screen); details: for Percent viability: MCC13, 72h
MCC26 cells (VN-MCC) = test: as above; details: for Percent viability: MCC26, 72h
UISO cells (VN-MCC) = test: as above; details: UISO; for Percent viability: 72h
WAGA cells (VP-MCC) = test: as above; details: WAGA; for Percent viability: 72h
MKL-1 cells (VP-MCC) = test: as above; details: for Percent viability: MKL1, 72h
MKL-2 cells (VP-MCC) = test: as above; details: for Percent viability: MKL2, 72h
[1] = tested on: VP-MCC cell lines (WAGA, MKL-1, MKL-2); test: qHTS cell viability, VP-MCC cell lines as a group (mean AUC, VP.MCC.avg); details: re-tested in triplicate, follow-up screen
GDSC cancer cell lines = test: Genomics of Drug Sensitivity in Cancer (GDSC) IC50 comparison across cancer cell lines; details: own IC50 estimates compared with public IC50 data
Experimental: Palo Alto, CA, USA) for these compounds from our small molecule screen. Following the graphing format in the GDSC database, compounds were ranked by IC50 and plotted in Rstudio using ggplot2, ggrepel, and scales packages. page 9: Supplementary Fig. S6. Au rora kinase inhibi tors mor e potentl y reduc e viability in VP-MCC than VN-MCC. […] Cell viability was measured by CellTiter- Glo at 72 h and by manual cell counts at 144 h. […] Consistent across n = 3 replicates . B) IC50 values (molar) for each aurora kinase inhibitor in each MCC cell line. […] IC50 values from GDSC (Gray-scale and green) were combined with IC50 values determined in our study (purple) and then ranked. n = number of experimental replicates for each cell line.

Cc1cc(Nc2cc(N3CCN(C)CC3)nc(Sc3ccc(NC(=O)C4CC4)cc3)n2)[nH]n1 [Tozasertib, reference compound]
Percent viability (MCC13 cells (VN-MCC); Log (M) -5.33646): 14.5%
Percent viability (MCC13 cells (VN-MCC); Log (M) -5.81358): 69.4%
Percent viability (MCC13 cells (VN-MCC); Log (M) -6.2907): 72.9%
Percent viability (MCC13 cells (VN-MCC); Log (M) -6.76782): 89.8%
Percent viability (MCC13 cells (VN-MCC); Log (M) -7.24494): 103.0%
Percent viability (MCC13 cells (VN-MCC); Log (M) -7.72207): 85.9%
Percent viability (MCC13 cells (VN-MCC); Log (M) -8.19919): 106.1%
Percent viability (MCC13 cells (VN-MCC); Log (M) -8.67631): 96.2%
Percent viability (MCC13 cells (VN-MCC); Log (M) -9.15343): 118.3%
Percent viability (MCC13 cells (VN-MCC); Log (M) -9.63055): 100.0%
Percent viability (MCC13 cells (VN-MCC); Log (M) -10.1077): 108.5%
Area under the dose-response curve (AUC) MCC13 Replicate 1 (MCC13 cells (VN-MCC); follow-up screen, MCC13, replicate 1): 420.2
Area under the dose-response curve (AUC) MCC13 Replicate 2 (MCC13 cells (VN-MCC); follow-up screen, MCC13, replicate 2): 430.9
Area under the dose-response curve (AUC) MCC13 Replicate 3 (MCC13 cells (VN-MCC); follow-up screen, MCC13, replicate 3): 459.4
Percent viability (MCC26 cells (VN-MCC); Log (M) -5.33646): 26.6%
Percent viability (MCC26 cells (VN-MCC); Log (M) -5.81358): 59.4%
Percent viability (MCC26 cells (VN-MCC); Log (M) -6.2907): 79.7%
Percent viability (MCC26 cells (VN-MCC); Log (M) -6.76782): 87.3%
Percent viability (MCC26 cells (VN-MCC); Log (M) -7.24494): 90.3%
Percent viability (MCC26 cells (VN-MCC); Log (M) -7.72207): 87.4%
Percent viability (MCC26 cells (VN-MCC); Log (M) -8.19919): 90.8%
Percent viability (MCC26 cells (VN-MCC); Log (M) -8.67631): 96.9%
Percent viability (MCC26 cells (VN-MCC); Log (M) -9.15343): 92.6%
Percent viability (MCC26 cells (VN-MCC); Log (M) -9.63055): 87.8%
Percent viability (MCC26 cells (VN-MCC); Log (M) -10.1077): 88.7%
Area under the dose-response curve (AUC) MCC26 Replicate 1 (MCC26 cells (VN-MCC); follow-up screen, MCC26, replicate 1): 399.1
Area under the dose-response curve (AUC) MCC26 Replicate 2 (MCC26 cells (VN-MCC); follow-up screen, MCC26, replicate 2): 396.0
Area under the dose-response curve (AUC) MCC26 Replicate 3 (MCC26 cells (VN-MCC); follow-up screen, MCC26, replicate 3): 410.6
Percent viability (UISO cells (VN-MCC); Log (M) -5.33646): 29.1%
Percent viability (UISO cells (VN-MCC); Log (M) -5.81358): 58.8%
Percent viability (UISO cells (VN-MCC); Log (M) -6.2907): 69.6%
Percent viability (UISO cells (VN-MCC); Log (M) -6.76782): 70.0%
Percent viability (UISO cells (VN-MCC); Log (M) -7.24494): 74.4%
Percent viability (UISO cells (VN-MCC); Log (M) -7.72207): 84.6%
Percent viability (UISO cells (VN-MCC); Log (M) -8.19919): 94.4%
Percent viability (UISO cells (VN-MCC); Log (M) -8.67631): 100.2%
Percent viability (UISO cells (VN-MCC); Log (M) -9.15343): 102.6%
Percent viability (UISO cells (VN-MCC); Log (M) -9.63055): 98.1%
Percent viability (UISO cells (VN-MCC); Log (M) -10.1077): 97.1%
Area under the dose-response curve (AUC) UISO Replicate 1 (UISO cells (VN-MCC); follow-up screen, replicate 1): 350.8
Area under the dose-response curve (AUC) UISO Replicate 2 (UISO cells (VN-MCC); follow-up screen, replicate 2): 389.2
Area under the dose-response curve (AUC) UISO Replicate 3 (UISO cells (VN-MCC); follow-up screen, replicate 3): 355.0
Percent viability (WAGA cells (VP-MCC); Log (M) -5.33646): 23.8%
Percent viability (WAGA cells (VP-MCC); Log (M) -5.81358): 31.7%
Percent viability (WAGA cells (VP-MCC); Log (M) -6.2907): 25.7%
Percent viability (WAGA cells (VP-MCC); Log (M) -6.76782): 41.2%
Percent viability (WAGA cells (VP-MCC); Log (M) -7.24494): 47.8%
Percent viability (WAGA cells (VP-MCC); Log (M) -8.19919): 107.2%
Percent viability (WAGA cells (VP-MCC); Log (M) -8.67631): 105.4%
Percent viability (WAGA cells (VP-MCC); Log (M) -9.15343): 101.2%
Percent viability (WAGA cells (VP-MCC); Log (M) -9.63055): 100.0%
Percent viability (WAGA cells (VP-MCC); Log (M) -10.1077): 100.0%
Area under the dose-response curve (AUC) WAGA Replicate 1 (WAGA cells (VP-MCC); follow-up screen, replicate 1): 353.1
Area under the dose-response curve (AUC) WAGA Replicate 2 (WAGA cells (VP-MCC); follow-up screen, replicate 2): 343.3
Area under the dose-response curve (AUC) WAGA Replicate 3 (WAGA cells (VP-MCC); follow-up screen, replicate 3): 330.6
Percent viability (MKL-1 cells (VP-MCC); Log (M) -5.33646): 35.7%
Percent viability (MKL-1 cells (VP-MCC); Log (M) -5.81358): 29.2%
Percent viability (MKL-1 cells (VP-MCC); Log (M) -6.2907): 29.7%
Percent viability (MKL-1 cells (VP-MCC); Log (M) -6.76782): 36.8%
Percent viability (MKL-1 cells (VP-MCC); Log (M) -7.24494): 39.2%
Percent viability (MKL-1 cells (VP-MCC); Log (M) -7.72207): 37.5%
Percent viability (MKL-1 cells (VP-MCC); Log (M) -8.19919): 101.6%
Percent viability (MKL-1 cells (VP-MCC); Log (M) -8.67631): 103.8%
Percent viability (MKL-1 cells (VP-MCC); Log (M) -9.15343): 98.2%
Percent viability (MKL-1 cells (VP-MCC); Log (M) -9.63055): 98.1%
Percent viability (MKL-1 cells (VP-MCC); Log (M) -10.1077): 100.0%
Area under the dose-response curve (AUC) MKL-1 Replicate 1 (MKL-1 cells (VP-MCC); follow-up screen, MKL-1, replicate 1): 300.3
Area under the dose-response curve (AUC) MKL-1 Replicate 2 (MKL-1 cells (VP-MCC); follow-up screen, MKL-1, replicate 2): 306.3
Area under the dose-response curve (AUC) MKL-1 Replicate 3 (MKL-1 cells (VP-MCC); follow-up screen, MKL-1, replicate 3): 312.1
Percent viability (MKL-2 cells (VP-MCC); Log (M) -5.33646): 29.1%
Percent viability (MKL-2 cells (VP-MCC); Log (M) -5.81358): 82.7%
Percent viability (MKL-2 cells (VP-MCC); Log (M) -6.2907): 74.7%
Percent viability (MKL-2 cells (VP-MCC); Log (M) -6.76782): 62.9%
Percent viability (MKL-2 cells (VP-MCC); Log (M) -7.24494): 51.8%
Percent viability (MKL-2 cells (VP-MCC); Log (M) -7.72207): 51.5%
Percent viability (MKL-2 cells (VP-MCC); Log (M) -8.19919): 79.6%
Percent viability (MKL-2 cells (VP-MCC); Log (M) -8.67631): 111.3%
Percent viability (MKL-2 cells (VP-MCC); Log (M) -9.15343): 116.9%
Percent viability (MKL-2 cells (VP-MCC); Log (M) -9.63055): 110.0%
Percent viability (MKL-2 cells (VP-MCC); Log (M) -10.1077): 101.6%
Area under the dose-response curve (AUC) MKL-2 Replicate 1 (MKL-2 cells (VP-MCC); follow-up screen, MKL-2, replicate 1): 388.8
Area under the dose-response curve (AUC) MKL-2 Replicate 2 (MKL-2 cells (VP-MCC); follow-up screen, MKL-2, replicate 2): 384.9
Area under the dose-response curve (AUC) MKL-2 Replicate 3 (MKL-2 cells (VP-MCC); follow-up screen, MKL-2, replicate 3): 409.6
VP-MCC viability (in words) [1]: consistently and potently reduced VP-MCC viability
potency in VP-MCC cell lines versus other human cancer cell lines (GDSC) (GDSC cancer cell lines): higher in VP-MCC cell lines than in hundreds of other human cancer cell lines
